Experiment: gradient 5% acetonitrile 3 min, to 50% in 2 min, to 85% in 15 min, held 3 min, 100 µL/min
Conditions: column: Zorbax Extend-C18 2.1 x 50 mm; eluents: water / acetonitrile, 0.1% formic acid
Procedure, shortened: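 In both positive and negative ionization mode, a quadrupole time-of-flight mass spectrometer coupled to HPLC analyzed pure standards run in mixtures of ~100 molecules. The Zorbax Extend-C18 column (2.1 × 50 mm, 1.8 μm) was operated at 100 μL/min with water and acetonitrile, each containing 0.1% formic acid. The dead volume was 40 μL and the dwell volume 900 μL. Retention time came from adduct peaks that were computationally picked and individually inspected by hand.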

Row | SMILES | RP-LC retention time
1 | CCOc1ccc(N(CC)C(=O)c2nc(N(C)C)c3cnn(C)c3n2)cc1 | 745 s
2 | Cc1ccc(-c2noc(-c3ccc4c(c3)OCCO4)n2)cc1 | 1250 s
3 | O=C(Nc1ccc(F)c(Cl)c1)C1CCCN(S(=O)(=O)c2c[nH]c(C(=O)N3CCCC3)c2)C1 (stereo unspecified) | 876 s
4 | O=S(=O)(Cc1ccc(Cl)cc1)N1CCc2nc(-c3ccc(Cl)cc3)ncc2C1 | 1210 s
5 | Cn1cccc1C(=O)C(=O)Nc1ccc(Cl)c(C(F)(F)F)c1 | 1130 s
6 | CCc1nn2c(CNC(=O)c3ccccc3Cl)c(C)nc2s1 | 650 s
7 | C=CCN1C(=O)COc2ccc(-c3csc(NC(=O)CCC4CCCCC4)n3)cc21 | 1210 s
8 | COc1cccc(/C=C/c2nc(C#N)c(NCCCN(C)C)o2)c1 | 651 s
9 | COc1cc(C(=O)NC2CCCNC2)cc(OC)c1OC (stereo unspecified) | 621 s
10 | Cc1cc(C)n(CC(=O)N(C)CC2(C)CCOCC2)n1 | 612 s
11 | O=C(Cc1nnc2cc(-c3nc(C4CC4)no3)ccn12)NC1CCCCC1 | 737 s
12 | Cc1cc2c(cc1S(=O)(=O)N1CCCC1C(=O)Nc1ccc(C(C)C)cc1)OC(C)C(=O)N2 (stereo unspecified) | 916 s
13 | O=C1NCCCCCN(C(=O)c2cnccn2)[C@H]2CCC[C@@H]12 | 620 s
14 | CN(C)C(=O)c1ccc2c(c1)N(CC(=O)NCc1ccc(Cl)cc1)C(=O)CO2 | 707 s
15 | O=C1CN(S(=O)(=O)c2cc(F)ccc2F)C2(CCCCC2)CN1CC1CC1 | 959 s
16 | COC(=O)C1=CN(CC(=O)NCc2ccc(Cl)cc2)S(=O)(=O)N=C1C | 850 s
17 | COc1ccc(NC(=O)N2CC(N(C3CCOCC3)S(C)(=O)=O)C2)cc1F | 685 s
18 | COc1ccc(-c2noc(-c3nc(-c4cccnc4)no3)n2)cc1 | 966 s
19 | O=C(Cn1nc2c3sc(N4CCCCC4)nc3ncn2c1=O)Nc1ccc(F)cc1Cl | 844 s

Row | SMILES | RP-LC retention time
20 | CCc1cc(C(=O)NCc2ccc(C)o2)nc2cc(-c3ccco3)nn12 | 767 s
21 | O=C(Cn1cnc2nc(N3CCC(C(=O)NC4CC4)CC3)sc2c1=O)NCC1CCCO1 (stereo unspecified) | 589 s
22 | COC(=O)C(C)(N)Cc1ccc(O)cc1 (stereo unspecified) | 573 s
23 | CCOC(=O)Cc1csc(NC(=O)Cn2nc3c(cc2=O)CCCCC3)n1 | 769 s
24 | COc1cccc(C(=O)NCc2ccc3[nH]c4c(c3c2)CCCC4)c1OC | 910 s
25 | CCCn1ccc2sc(C)c(C(=O)NCc3cc(OC)ccc3OC)c2c1=O | 889 s
26 | CCCn1cnc2ccc(-c3noc(Cc4cccs4)n3)cc21 | 750 s
27 | Cc1cc(C)n(CC(=O)N2CCC(c3nc(-c4ccncc4)no3)C2)n1 (stereo unspecified) | 839 s
28 | Cc1cc(OC(C)C(=O)N(Cc2ccco2)C2CCS(=O)(=O)C2)cc(C)c1Cl (stereo unspecified) | 1010 s
29 | COc1cc(=O)n2c(c1C(=O)Nc1ccc(Br)cc1C)CCCC2 | 757 s
30 | O=C(N[C@H]1C[C@@H]2C[C@H]1N(S(=O)(=O)c1ccc3c(c1)CCC3)C2)c1cccs1 | 943 s
31 | CC(C)Cc1ccc(S(=O)(=O)N2CCC3(CC2)c2nccn2CCN3C)cc1 | 777 s
32 | O=C(Cn1cnc2nc(N3CCC(C(=O)NC4CC4)CC3)sc2c1=O)NCCC1=CCCCC1 | 698 s
33 | COc1cc(OC)cc(C(=O)Nc2ccc3c(c2)Sc2ncccc2C(=O)N3C(C)C)c1 | 916 s
34 | COCCN1CC2CN(C(=O)Nc3ccc4c(c3)OCCO4)CC(C1)O2 | 580 s
35 | CCOC(=O)c1noc2nc(C)nc(N(C)Cc3ccccc3)c12 | 1060 s
36 | CCn1cc(S(=O)(=O)N2CC3(CCCCC3)CC2COc2ccc(OC)cc2)cn1 (stereo unspecified) | 1090 s
37 | CN(CC(=O)NC1CCCCC1)S(=O)(=O)c1c[nH]c(C(=O)N2CCCC2)c1 | 722 s
38 | CC1(C)NC(=O)N(CCC(=O)N2CCC(c3nc(C4CCOCC4)no3)C2)C1=O (stereo unspecified) | 604 s

Other lines, results leading:

Row | RP-LC retention time | SMILES
39 | 857 s | Cc1ccc(-c2cc3n(n2)CCCN(C(=O)Cc2ccsc2)C3)cc1
40 | 618 s | COc1ccc(CCNC(=O)C2CCCN(c3ccc(-c4ccco4)nn3)C2)cc1OC (stereo unspecified)
41 | 584 s | CC(=O)c1cccc(Nc2c(C(=O)N3CCOCC3)cnc3nc(C)ccc23)c1
42 | 671 s | O=C(NCc1cc(F)ccc1F)c1ccc2ncnc(N3CCCCC3)c2c1
43 | 804 s | Cc1ccc(CN2CCCn3nc(C(=O)NCc4ccco4)cc3C2=O)cc1
44 | 860 s | O=S(=O)(NCc1ccccc1)c1ccc2c(c1)-c1oncc1CO2
45 | 662 s | CNC(=O)c1cccc(C(=O)N(C)c2ccccc2)n1
46 | 601 s | Cc1cccc(CC(=O)NCCCN2CCN(c3ccccc3)CC2)c1
47 | 1220 s | CC1=NS(=O)(=O)N(Cc2ccccc2)C=C1C(=O)OCc1nc(-c2ccc(Cl)cc2)no1
48 | 936 s | COC(=O)c1ccc2c(=O)n(Cc3cccc(OC)c3)c(N3CCOCC3)nc2c1
49 | 644 s | COCCn1c(C)cc(O)c(C(c2ccc(Cl)cc2)N2CCC(C)CC2)c1=O (stereo unspecified)
50 | 740 s | Cc1cccc(CNC(=O)CN2CCN(Cc3ccc(F)cc3)C(=O)C2=O)c1
51 | 664 s | Cc1ccc(C2(O)C(=O)N(CC(=O)Nc3ccccc3F)c3ccccc32)cc1 (stereo unspecified)
52 | 623 s | COc1ccc(-c2noc(Cn3ccn(-c4ccccc4OC)c(=O)c3=O)n2)cc1
53 | 1250 s | COc1cc(NC(=O)c2c(O)c3cccnc3n(-c3ccccc3)c2=O)cc(OC)c1
54 | 803 s | Cc1ccc(-n2nc(N3CCN(C(=O)Nc4ccc(F)cc4)CC3)ccc2=O)cc1
55 | 1190 s | O=S(=O)(c1cc(-c2nnc(-c3ccc(F)cc3)o2)ccc1Cl)N1CCCCC1
56 | 654 s | CCOc1ccc(NC(=O)Cn2c(N3CCOCC3)nc(C)cc2=O)cc1
57 | 907 s | CCN(C(=O)Cc1c(C(=O)O)c(C)cn1CC)c1ccccc1
58 | 1100 s | Cc1ccc(-c2noc(C3CCCN3C(=O)CNC(=O)C(c3ccccc3)c3ccccc3)n2)cc1 (stereo unspecified)
59 | 1310 s | O=C(NCC1(c2nc(-c3ccccc3)cs2)CCOCC1)c1cccc(-c2noc(C(F)(F)F)n2)c1
60 | 680 s | O=C(NCCn1nc(-c2ccco2)ccc1=O)C1CN(c2nc3c(F)cccc3s2)C1
61 | 946 s | O=C(c1cn2cc(Cl)ccc2n1)N1CCN(c2ccccc2Cl)CC1
62 | 576 s | CN1CCN(c2ccc(CNC(=O)C3CCc4sc(C(=O)N(C)C)cc4C3)cc2)CC1 (stereo unspecified)
63 | 730 s | COc1cc(-c2nc3ccc(Cl)cn3c2Nc2ccc(C)cc2)ccc1O
64 | 664 s | COc1ccc(CN2CCc3nc(N4CCN(c5ncccn5)CC4)ncc3C2)c(OC)c1
65 | 610 s | Oc1ccccc1CN1CCN(c2cc(-c3ccccc3)[nH]n2)CC1
66 | 941 s | CN(c1nc(-c2ccc(Cl)cc2)nc2ccccc12)C1CCCCC1

Source: the METLIN SMRT retention time set (Domingo-Almenara et al. 2019)
